In US9714249B2 (Novartis AG, priority 2013, dated 2017):

Experiments:
[1] = test system: THP-1 cells; test: Cell growth inhibition assay (CellTiter-Glo), THP-1; format: cell-based, human; conditions: THP-1, 4 days; for GI50: Homo sapiens, 96 h, half-maximal growth inhibition; for THP-1 TGI: total growth inhibition
Procedure: (§1) The human leukemia cell lines MV-4-11, THP-1 and K-562 were employed to characterize the effect of BET inhibitors on cellular proliferation and viability. Cells were obtained from the American Type Culture Collection (ATCC) and cultured at 37° C. in a humidified 5% CO2 incubator in the following media: MV-4-11: DMEM high glucose (Animed #1-26F01-I), 10% FCS (Animed #2-01F26-I), 4 mM L-Glutamine (Animed #5-10K50), 1 mM Sodium Pyruvate (Animed # G03625P), 1× Penicillin-Streptomycin (Animed # F12478P); K-562: Iscove's MEM (Animed #1-28F16-I), 10% FCS (Animed #2-01F26-I), 4 mM L-Glutamine (Animed #5-10K50), 1× Penicillin-Streptomycin (Animed # F12478P); THP-1: RPMI-1640 (Animed #1-41F01-I), 10% FCS (Animed #2-01F26-I), 2 mM L-Glutamine (Animed #5-10K50), 10 mM HEPES (Animed #5-31F100), 1 mM Sodium Pyruvate (Animed # G03625P), 1× Penicillin-Streptomycin (Animed # F12478P). The AML lines MV-4-11 and THP-1 are very sensitive to BET inhibitors and show massive cell death upon BET inhibition (Zuber et al., Nature, 478 (2011), 524-8). Compound-mediated suppression of cell proliferation/viability was assessed by quantification of cellular ATP levels using the CellTiter-Glo (CTG) reagent (Promega). Briefly, cells were seeded in 20 μl fresh medium into 384-well plates, followed by addition of 5 μl medium containing compound dilutions at 5-fold their final intended concentration. Dose-response effects were assessed by 3-fold serial dilutions of the test compound, starting at 10 μM. Following incubation of the cells for 4 days at 37° C. and 5% CO2, the effect of inhibitors on cell viability was quantified following addition of 20 μl CTG and luminescence quantification (integration time: 100 ms) as per vendor manual, using a correspondingly equipped Tecan M200 multi-mode platereader (TECAN, Switzerland). For data analysis, the assay background value determined in wells containing medium, but no cells, was subtracted from all data points. To enable differentiation of cytotoxic from cytostatic compounds, the number of viable cells is assessed relative to that observed at the time of compound addition using a separate cell plate (day 0). The effect of a particular test compound concentration on cell proliferation/viability is expressed as percentage of the background- and day 0-corrected luminescence reading obtained for cells treated with vehicle only (DMSO, 0.1% final concentration), which is set as 100%, whereas that luminescence reading for wells containing medium is set as −100%. Compound concentrations leading to half-maximal (1050) and total growth inhibition (TGI) were determined using standard four parameter curve fitting.

[2] = test system: MV-4-11 cells; test: Cell growth inhibition assay (CellTiter-Glo), MV-4-11; format: cell-based, human; conditions: MV-4-11, 4 days; for GI50: Homo sapiens, MV4-11, 96 h, half-maximal growth inhibition; for MV-4-11 TGI: total growth inhibition
Procedure: as §1

[3] = target: BRD4-NUT-fusion (Homo sapiens (Human), UniProt O60885+Q86Y26); test: Nut-foci formation assay (HCS) in HCC2494 NUT midline carcinoma cells; format: cell-based; conditions: 24 hours, nuclear BRD4-NUT foci, immunofluorescence
Procedure: Compound-mediated inhibition of BRD4 activity was monitored by quantification of the number and intensity of nuclear BRD4-NUT foci using automated immunofluorescence microscopy. Briefly, 5000 cells in 20 μl fresh medium were seeded into Poly-D-Lysine-precoated 384-well plates and incubated overnight at 37° C. and 5% CO2, followed by addition of 5 μl medium containing compound dilutions at 5-fold their final intended concentration. Dose-response effects were assessed by 3-fold serial dilutions of the test compound, starting at 10 μM. […] Assay plates were imaged using the appropriate filter sets on the Cellomics VTi automated fluorescence microscopy platform (ThermoFisher Scientific) and the population average of the number of NUT-foci per nucleus is quantified using the Cellomics Spot Detection BioApplication image analysis algorithm (ThermoFisher Scientific). The effect of a particular test compound concentration on NUT-foci number and intensity is expressed as percentage of the value obtained for cells treated with vehicle only (DMSO, 0.1% final concentration), which was set as 100.

[4] = test system: K-562 cells; test: Cell growth inhibition assay (CellTiter-Glo), K-562; format: cell-based, human; conditions: K-562, 4 days; for GI50: Homo sapiens, K562, 96 h, half-maximal growth inhibition; for K-562 TGI: total growth inhibition
Procedure: as §1

[5] = target: CREBBP bromodomain (His-CREBBP (1081-1197)) (Homo sapiens (Human), UniProt Q92793); test: AlphaScreen in-vitro binding assay for CREBBP; conditions: acetyl-histone H4 peptide
Chain of CREBBP bromodomain (His-CREBBP (1081-1197)) (Q92793 1081-1197): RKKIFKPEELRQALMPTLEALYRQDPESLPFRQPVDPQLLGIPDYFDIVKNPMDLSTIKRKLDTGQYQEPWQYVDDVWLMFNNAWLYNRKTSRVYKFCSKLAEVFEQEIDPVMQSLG
Procedure: In order to assess bromodomain selectivity, we set up a binding assay using the bromodomain encoded by the CREBBP gene. […] Reactions were incubated at 30° C. for 35 minutes. Subsequently 4.5 μl per well detection mix (50 mM HEPES, pH 7.5, 0.005% Tween20, 0.02% BSA, 150 mM NaCl, 45 μg/ml Ni-chelate acceptor beads, 45 μg/ml streptavidin-donor beads) (Perkin Elmer)) were added. After 60 minutes incubation at room temperature, plates were measured in a Perkin Elmer EnVision multilabel reader. IC50 values were determined from percent inhibition values at different compound concentrations by non-linear regression analysis.
(§2) Test compounds were dissolved in DMSO (10 mM) and transferred into 1.4 mL flat bottom or V-shaped Matrix tubes carrying a unique 2D matrix. The stock solutions were stored at […] if not used immediately. For the test procedure the vials were defrosted and identified by a scanner whereby a working sheet was generated that guided the subsequent working steps. Compound dilutions were made in 96 well plates. This format enabled the assay of maximally 40 individual test compounds at 8 concentrations (single points) including 4 reference compounds, if desired (known BET inhibitors from the prior art, for this and other assays of the type disclosed herein). The dilution protocol included the production of “pre-dilution plates”, “master plates” and “assay plates”.
Pre-dilution plates: 96 polypropylene well plates were used as pre-dilution plates. A total of 4 pre-dilution plates were prepared including 10 test compounds each on the plate positions A1-A10, one standard compound at A11 and one DMSO control at A12. All dilution steps were done on a HamiltonSTAR robot. […] These plates were used directly for the assay which was performed in a total volume of 13.55 μL. […] Cell Growth Inhibition Assay

[6] = target: BRD2 (His-Brd2(60-472)) (Homo sapiens (Human), UniProt P25440); test: TR-FRET in-vitro binding assay for BRD2; conditions: acetyl-histone H4 peptide
Chain of BRD2 (His-Brd2(60-472)) (P25440 60-472, species assumed): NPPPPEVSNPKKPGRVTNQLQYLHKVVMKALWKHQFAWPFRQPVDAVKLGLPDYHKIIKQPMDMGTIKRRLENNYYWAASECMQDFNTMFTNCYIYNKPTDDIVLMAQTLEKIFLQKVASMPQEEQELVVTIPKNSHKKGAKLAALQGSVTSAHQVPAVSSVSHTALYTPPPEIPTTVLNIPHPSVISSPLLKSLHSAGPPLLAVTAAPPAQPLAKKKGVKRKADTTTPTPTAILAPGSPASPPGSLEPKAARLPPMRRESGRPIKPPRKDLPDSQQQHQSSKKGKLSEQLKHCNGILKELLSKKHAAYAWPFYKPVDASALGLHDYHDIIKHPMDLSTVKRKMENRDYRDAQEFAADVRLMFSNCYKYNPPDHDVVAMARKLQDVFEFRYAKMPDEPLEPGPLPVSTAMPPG
Procedure: (§3) All assays were performed in 384 well microtiter plates. Each assay plate contained 8-point serial dilutions for 40 test compounds, plus 16 high- and 16 low controls. Liquid handling and incubation steps were done on an Innovadyne Nanodrop Express equipped with a robotic arm (Thermo CatX, Perkin Elmer/Caliper Twister II) and an incubator (Liconic STX40, Thermo Cytomat 2C450). The assay plates were prepared by addition of 50 nl per well of compound solution in 90% DMSO HummingBird nanodispenser (Zinsser Analytic). The assay was started by stepwise addition of 4.5 μl per well of bromo domain protein (50 mM HEPES, pH 7.5, 0.005% Tween20, 0.1% BSA, 50 mM NaCl, 45 nM His-Brd2(60-472) or 45 nM His-Brd3(20-477) or 45 nM His-Brd4(44-477) all proteins produced in-house) and 4.5 μl per well of peptide solution (50 mM HEPES, pH 7.5, 0.005% Tween20, 0.1% BSA, 50 mM NaCl, 60 nM acetyl-histone H4 (AcK 5, 8, 12, 16) (Biosyntan GmbH)). Reactions were incubated at 30° C. for 35 minutes. Subsequently 4.5 μl per well detection mix (50 mM HEPES, pH 7.5, 0.005% Tween20, 0.1% BSA, 50 mM NaCl, 3 nM Eu-labeled anti-His6 antibody, 21 nM streptavidin-allophycocyanin) were added. After 35 minutes incubation at 30° C., plates were measured in a Perkin Elmer EnVision multilabel reader. Concentrations causing 50% inhibition (1050) values were determined from percent inhibition values at different compound concentrations by non-linear regression analysis.
as §2
(§4) Pre-dilution plates: 96 polypropylene well plates were used as pre-dilution plates. A total of 4 pre-dilution plates were prepared including 10 test compounds each on the plate positions A1-A10, one standard compound at A11 and one DMSO control at A12. All dilution steps were done on a HamiltonSTAR robot. Master plates: 30 μL of individual compound dilutions including standard compound and controls of the 4 “pre-dilution plates” were transferred into a 384 “master plate” including the following concentrations 10000, 3003, 1000, 300, 100, 30, 10 and 3 μM, respectively in 90% of DMSO. Assay plates: Identical “assay plates” were then prepared by pipetting 50 nL each of compound dilutions of the “master plates” into 384-well “assay plates” by means of a HummingBird 384-channel dispenser. These plates were used directly for the assay which was performed in a total volume of 13.55 μL. This led to a final compound concentration of 37, 11, 3.7, 1.1, 0.37, 0.11, 0.037 and 0.011 μM and a final DMSO concentration of 0.37% in the assay. Cell Growth Inhibition Assay

[7] = target: BRD3 (His-Brd3(20-477)) (Homo sapiens (Human), UniProt Q15059); test: TR-FRET in-vitro binding assay for BRD3; conditions: acetyl-histone H4 peptide
Chain of BRD3 (His-Brd3(20-477)) (Q15059 20-477, species assumed): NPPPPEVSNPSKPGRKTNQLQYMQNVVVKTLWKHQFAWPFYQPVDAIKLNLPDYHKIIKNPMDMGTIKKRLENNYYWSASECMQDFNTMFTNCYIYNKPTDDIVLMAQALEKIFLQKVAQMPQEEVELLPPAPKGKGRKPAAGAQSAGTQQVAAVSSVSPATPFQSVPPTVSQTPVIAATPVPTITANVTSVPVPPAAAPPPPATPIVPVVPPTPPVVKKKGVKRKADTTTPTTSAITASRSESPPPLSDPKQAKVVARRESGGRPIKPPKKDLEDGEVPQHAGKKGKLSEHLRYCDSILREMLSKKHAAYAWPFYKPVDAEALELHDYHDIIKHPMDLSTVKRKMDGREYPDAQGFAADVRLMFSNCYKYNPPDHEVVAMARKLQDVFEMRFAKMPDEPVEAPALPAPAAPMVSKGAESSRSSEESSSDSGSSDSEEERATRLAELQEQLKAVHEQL
Procedure: as §3, §2, §4

SMILES | GI50 [1] [nM] | THP-1 TGI [1] [nM] | GI50 [2] [nM] | MV-4-11 TGI [2] [nM] | IC50 [3] [nM] | GI50 [4] [nM] | K-562 TGI [4] [nM] | IC50 [5] [nM] | IC50 [6] [nM] | IC50 [7] [nM]
COc1ncccc1-n1nc(C)c2c1C(c1ccc(Cl)cc1)N(c1cc(C)c(=O)n(C)c1)C2=O (stereo not drawn) [Example 17a, 6-(4-chlorophenyl)-5-(1,5-dimethyl-6-oxo-1,6-dihydropyridin-3-yl)-1-(2-methoxypyridin-3-yl)-3-methyl-5,6-dihydropyrrolo[3,4-c]pyrazol-4(1H)-one] | 102 | 175 | 58.1 | 87.9 | 56.1 | 293 | >10000 |  |  | 
CCOc1ncccc1-n1nc(C)c2c1C(c1ccc(Cl)cc1)N(c1cc(C)c(=O)n(C)c1)C2=O (stereo not drawn) [Example 18a, 6-(4-chlorophenyl)-5-(1,5-dimethyl-6-oxo-1,6-dihydropyridin-3-yl)-1-(2-ethoxypyridin-3-yl)-3-methyl-5,6-dihydropyrrolo[3,4-c]pyrazol-4(1H)-one] | 89.6 | 175 | 89.3 | 101 | 66.6 | 574 | >10000 |  |  | 
Cc1cc(N2C(=O)c3c(C4CC4)n[nH]c3C2c2ccc(Cl)cc2)cn(C)c1=O (stereo not drawn) [Example 23, 6-(4-chlorophenyl)-3-cyclopropyl-5-(1,5-dimethyl-6-oxo-1,6-dihydropyridin-3-yl)-5,6-dihydropyrrolo[3,4-c]pyrazol-4(1H)-one] | 59.4 | 128.5 | 25.6 | 48 |  | 170 | >10000 | 3300 | 52 | 49
Cc1[nH]nc2c1C(=O)N(c1cc(C)c(=O)n(C)c1)C2c1ccc(Cl)cc1 (stereo not drawn) [Example 9, 6-(4-chlorophenyl)-5-(1,5-dimethyl-6-oxo-1,6-dihydropyridin-3-yl)-3-methyl-5,6-dihydropyrrolo[3,4-c]pyrazol-4(2H)-one] | 88.5 | 206 | 51 | 72.1 |  | 322 | >10000 | 3000 |  | 67
Cc1[nH]nc2c1C(=O)N(c1cc(C)c(=O)n(C)c1)[C@@H]2c1ccc(Cl)cc1 [Example 27, (R)-6-(4-chlorophenyl)-5-(1,5-dimethyl-6-oxo-1,6-dihydropyridin-3-yl)-3-methyl-5,6-dihydropyrrolo[3,4-c]pyrazol-4(2H)-one] | 56.2 | 115 | 27.1 | 49.6 |  | 112 | >10000 | 1200 |  | 27
